{"source": "paper PMC9298070", "about": "“Lack of a Clinically Meaningful Drug Interaction Between the HIV‐1 Antiretroviral Agents Islatravir, Dolutegravir, and Tenofovir Disoproxil Fumarate” (Clinical Pharmacology in Drug Development, 2021)", "key": {"[1]": {"assay": "Safety and tolerability in the phase 1 trial (adverse event reports, laboratory tests, ECG, vital signs)", "assay_type": "in vivo, human", "conditions": "for participants reporting AEs considered drug-related: of 12 participants; for tolerability: adults without HIV, N = 12", "experimental": "(§1) This was a phase 1, open‐label, fixed‐sequence, 2‐period trial in adults without HIV (protocol MK‐8591‐005). In period 1, participants received a single oral dose of 20 mg islatravir. In period 2, participants received multiple oral doses of 50 mg dolutegravir and 300 mg TDF once daily for 11 consecutive days (days 1‐11), with a single oral dose of 20 mg islatravir coadministered on day 8. There was a washout period of ≥7 days between islatravir dosing in period 1 and the first dose of dolutegravir and TDF in period 2 (Figure 1).\nSafety and tolerability were monitored by repeated clinical and laboratory evaluations for the duration of the trial. Safety evaluations included adverse event (AE) reports, laboratory tests, 12‐lead electrocardiograms, and vital signs.\nIncidence of adverse experiences was descriptively summarized."}, "[2]": {"tested_on": "CYP2B6", "set-up": "method as in PMID 34452431", "conditions": "at concentrations up to 100 μM; cited from earlier work"}, "[3]": {"tested_on": "CYP3A4", "set-up": "method as in PMID 34452431", "conditions": "up to 200 μM; cited from earlier work"}, "[4]": {"tested_on": "HIV‐1", "set-up": "method as in PMID 31911147", "conditions": "single oral dose as low as 0.5 mg, treatment-naive adults with HIV-1; cited from earlier work"}, "[5]": {"tested_on": "CYP2D6", "set-up": "method as in PMID 34452431", "conditions": "at concentrations up to 100 μM; cited from earlier work"}, "[6]": {"tested_on": "CYP1A2", "set-up": "method as in PMID 34452431", "conditions": "at concentrations up to 100 μM; cited from earlier work"}, "[7]": {"set-up": "method as in ref 14, 15 = [14]; 14 Rudd D , Cao Y , Vaddady P , et al. Modeling‐supported islatravir dose selection for phase 3 . Poster presented at Conference on Retroviruses and Opportunistic Infections (CROI); March 8–10 , 2020 || [15]; 15 Matthews RP , Rudd JD , Levine V , et al. Multiple daily doses of MK‐8591 as low as 0.25 mg are expected to suppress HIV . Oral presentation at Conference on Retroviruses and Opportunistic Infectio", "conditions": "single oral doses of islatravir, adults without HIV; cited from earlier work"}, "[8]": {"tested_on": "CYP2C8", "set-up": "method as in PMID 34452431", "conditions": "at concentrations up to 100 μM; cited from earlier work"}, "[9]": {"tested_on": "CYP2C19", "set-up": "method as in PMID 34452431", "conditions": "at concentrations up to 100 μM; cited from earlier work"}, "[10]": {"tested_on": "HIV‐1", "set-up": "method as in ref 17 = [17]; 17 Molina JM , Yazdanpanah Y , Afani Saud A , et al. MK‐8591 at doses of 0.25 to 2.25 mg QD, in combination with doravirine establishes and maintains viral suppression through 48 weeks in treatment‐na", "conditions": "islatravir in combination with doravirine, treatment-naive adults with HIV-1, phase 2b; cited from earlier work"}, "[11]": {"tested_on": "drug transporters, pumps, transfer proteins, extrusion proteins, or resistance proteins", "conditions": "cited from earlier work"}, "[12]": {"set-up": "method as in PMID 34452431", "conditions": "cited from earlier work"}, "[13]": {"tested_on": "CYP2C9", "set-up": "method as in PMID 34452431", "conditions": "at concentrations up to 100 μM; cited from earlier work"}, "[14]": {"assay": "Plasma pharmacokinetics in phase 1, open-label, fixed-sequence, 2-period drug interaction trial (MK-8591-005)", "assay_type": "in vivo, human", "experimental": "as §1\nBlood samples for islatravir plasma analysis were collected before dosing and at selected time points over 96 hours following administration of islatravir on day 1 of period 1 and day 8 of period 2. In period 2, samples taken at 24, 48, and 72 hours for islatravir plasma analysis were collected before dose administration of dolutegravir and TDF. Blood samples for plasma analysis of dolutegravir and tenofovir were collected before dosing on days 1, 7, and 8 of period 2 and at selected time points over 24 hours after dosing on days 7 and 8 of period 2. The 24 hour samples for dolutegravir and tenofovir analysis for days 7 and 8 were collected before dosing of dolutegravir and TDF.\nPlasma concentrations of islatravir, dolutegravir, and tenofovir were determined by inVentiv Health Clinique (Québec City, Québec, Canada) using validated high‐performance liquid chromatography coupled to tandem mass spectrometry methods.\nIslatravir (m/z 294.000/154.000) was extracted using an automated protein precipitation method using [^13C,^15N3]‐ISL as internal standard (m/z 297.800/158.000). The extracted samples were assessed on a system equipped with a X Select HSS T3 C18, 50×2.1 mm, 2.5 μm column with water/acetonitrile with formic acid mobile phase. […] The lower limit of quantitation for islatravir was 0.10 ng/mL, with an analytical range of 0.10 to 100.00 ng/mL.\nDolutegravir (m/z 420.200/277.200) was extracted using an automated protein precipitation method using [C^13‐d5]‐dolutegravir as the internal standard (m/z 426.300/277.300). The extracted samples were assessed on a system equipped with an ACE 3 C18, 30 × 4.6 mm, 3 μm column (Avantor, Radnor, Pennsylvania) with water/methanol with ammonium formate and formic acid mobile phase. […] The lower limit of quantitation for dolutegravir was 10.00 ng/mL, with an analytical range of 10.00 to 10 000.00 ng/mL.\nTenofovir (m/z 288.200/176.200) was extracted using an automated solid phase extraction using tenofovir‐d6 as internal standard (m/z 294.100/182.300). The extracted samples were assessed on a system equipped with an Atlantis dC18, 75 × 4.6 mm, 3 μm column (Waters Corp., Milford, Massachusetts) with water/acetonitrile with ammonium formate and formic acid mobile phase. […] The lower limit of quantitation for tenofovir was 0.50 ng/mL, with an analytical range of 0.50 to 500.00 ng/mL.\nPlasma islatravir, dolutegravir, and tenofovir pharmacokinetics were summarized descriptively. Pharmacokinetic parameter values were calculated using the software Phoenix WinNonlin version 6.3 (Certara, Princeton, New Jersey). Cmax, C24, and tmax values were obtained directly from the observed plasma concentration–time data."}}, "note": "Read-outs that look alike come from different tables or passages of the source."}
{"smiles": "C#C[C@]1(CO)O[C@@H](n2cnc3c(N)nc(F)nc32)C[C@@H]1O", "note": "[Islatravir, 4′‐Ethynyl‐2‐fluoro‐2′‐deoxyadenosine]", "values": [{"measurement": "participants reporting AEs considered drug-related", "setting": "[1]; after administration of islatravir", "result": 3, "unit": "participants"}, {"measurement": "participants reporting AEs considered drug-related", "setting": "[1]; after coadministration of all 3 therapies (islatravir, dolutegravir, TDF)", "result": 1, "unit": "participant"}, {"measurement": "tolerability", "setting": "[1]; islatravir alone, single oral 20 mg", "result": "generally well tolerated"}, {"measurement": "tolerability", "setting": "[1]; islatravir in combination with dolutegravir and TDF", "result": "generally well tolerated"}, {"measurement": "inhibitory effect on CYP2B6", "setting": "[2]", "result": "no inhibitory effect"}, {"measurement": "inhibitory effect on CYP3A4", "setting": "[3]", "result": "no inhibitory effect"}, {"measurement": "duration of effective viral suppression", "setting": "[4]", "result": "up to 7 days"}, {"measurement": "inhibitory effect on CYP2D6", "setting": "[5]", "result": "no inhibitory effect"}, {"measurement": "inhibitory effect on CYP1A2", "setting": "[6]", "result": "no inhibitory effect"}, {"measurement": "time to peak plasma concentrations", "setting": "[7]", "result": "≈ 0.5 hours"}, {"measurement": "inhibitory effect on CYP2C8", "setting": "[8]", "result": "no inhibitory effect"}, {"measurement": "inhibitory effect on CYP2C19", "setting": "[9]", "result": "no inhibitory effect"}, {"measurement": "duration of maintained virologic suppression", "setting": "[10]", "result": "up to 48 weeks"}, {"measurement": "interference with drug transporters, pumps, transfer proteins, extrusion proteins, or resistance proteins", "setting": "[11]", "result": "not found to interfere"}, {"measurement": "plasma protein binding", "setting": "[12]", "result": "low"}, {"measurement": "inhibitory effect on CYP2C9", "setting": "[13]", "result": "no inhibitory effect"}, {"measurement": "increase of islatravir AUC0‐inf on coadministration", "setting": "[14]; coadministration with steady-state dolutegravir and TDF compared with islatravir administered alone", "result": 28, "unit": "%"}, {"measurement": "half-life", "setting": "[14]; human, oral, plasma islatravir, single 20 mg islatravir on day 8 with 50 mg dolutegravir + 300 mg TDF once daily, period 2, N = 12, read-out: Apparent terminal t1/2, geometric mean (geometric CV %) (converted)", "result": 55.9, "unit": "h"}, {"measurement": "AUC", "setting": "[14]; human, plasma, oral, plasma islatravir, single 20 mg islatravir on day 8 with 50 mg dolutegravir + 300 mg TDF once daily days 1-11, period 2, N = 12, read-out: AUC0‐inf, AM (SD)", "result": 2.53, "unit": "µM·h"}, {"measurement": "AUC", "setting": "[14]; human, plasma, oral, plasma islatravir, single 20 mg islatravir on day 8 with 50 mg dolutegravir + 300 mg TDF once daily days 1-11, period 2, N = 12, read-out: AUC0‐inf, GM (95%CI)", "result": 2.51, "unit": "µM·h"}, {"measurement": "Cmax", "setting": "[14]; human, plasma, oral, plasma islatravir, single 20 mg islatravir on day 8 with 50 mg dolutegravir + 300 mg TDF once daily days 1-11, period 2, N = 12, read-out: Cmax, AM (SD)", "result": 522, "unit": "nM"}, {"measurement": "Cmax", "setting": "[14]; human, plasma, oral, plasma islatravir, single 20 mg islatravir on day 8 with 50 mg dolutegravir + 300 mg TDF once daily days 1-11, period 2, N = 12, read-out: Cmax, GM (95%CI)", "result": 510, "unit": "nM"}, {"measurement": "half-life", "setting": "[14]; human, plasma, oral, plasma islatravir, single 20 mg islatravir on day 8 with 50 mg dolutegravir + 300 mg TDF once daily, period 2, N = 12, read-out: Apparent terminal t1/2, AM (SD) (converted)", "result": 56.2, "unit": "h"}, {"measurement": "AUC", "setting": "[14]; human, plasma, po, 20 mg, plasma islatravir, islatravir alone, single oral 20 mg, day 1 period 1, N = 12, read-out: AUC0‐inf, AM (SD)", "result": 2, "unit": "µM·h"}, {"measurement": "AUC", "setting": "[14]; human, plasma, po, 20 mg, plasma islatravir, islatravir alone, single oral 20 mg, day 1 period 1, N = 12, read-out: AUC0‐inf, GM (95%CI)", "result": 1.97, "unit": "µM·h"}, {"measurement": "half-life", "setting": "[14]; human, plasma, po, 20 mg, plasma islatravir, islatravir alone, single oral 20 mg, day 1 period 1, N = 12, read-out: Apparent terminal t1/2, AM (SD) (converted)", "result": 57.2, "unit": "h"}, {"measurement": "half-life", "setting": "[14]; human, plasma, po, 20 mg, plasma islatravir, islatravir alone, single oral 20 mg, day 1 period 1, N = 12, read-out: Apparent terminal t1/2, geometric mean (geometric CV %) (converted)", "result": 56.6, "unit": "h"}, {"measurement": "Cmax", "setting": "[14]; human, plasma, po, 20 mg, plasma islatravir, islatravir alone, single oral 20 mg, day 1 period 1, N = 12, read-out: Cmax, AM (SD)", "result": 495, "unit": "nM"}, {"measurement": "Cmax", "setting": "[14]; human, plasma, po, 20 mg, plasma islatravir, islatravir alone, single oral 20 mg, day 1 period 1, N = 12, read-out: Cmax, GM (95%CI)", "result": 479, "unit": "nM"}, {"measurement": "Tmax", "setting": "[14]; human, plasma, po, 20 mg, plasma islatravir, islatravir alone, single oral 20 mg, day 1 period 1, N = 12, read-out: tmax, median (min‐max)", "result": 0.75, "unit": "h"}, {"measurement": "tmax, median (min‐max)", "setting": "[14]; plasma islatravir, single 20 mg islatravir on day 8 with 50 mg dolutegravir + 300 mg TDF once daily, period 2, N = 12", "result": "1.00 (0.50‐2.01) h"}]}
